Reference: patent US20260007652A1, “Selective Modulators of AhR-Regulated Transcription and Method for Using Such Modulators to Treat Cancer” (OREGON STATE UNIVERSITY, priority 2022, published 2026)

Key:
HepG2 cells = assay: Colony forming assay, HepG2 cells; format: cell-based, human; settings: 10 μM, alone
Description: FIGS. 75A-75C compare the effects of 11-Cl-BBQ and Evoxine in hepatoma: A) Mouse Hepa-1 cells were treated with 11-Cl-BBQ, Evoxine either alone or in combination for 48 hours before assessing cell viability using Cell-Titer Glo Viability Assay. B) Hepa-1 cells treated with Evoxine, 11-Cl-BBQ either alone or in combination for 48 hours with induction of cell death measured by Annexin-V staining and detection by flow cytometry. C) Colony forming assay of HepG2 human hepatocellular carcinoma cells seeded at 300 cell/well in a 24-well plate before treatment with 11-Cl-BBQ, Evoxine either alone or in combination at the indicated concentrations for two weeks, followed by fixation and staining with methylene blue. Quantitation of colonies is shown on the right.
Cells were seeded at a density of 500 cell/well in triplicate in 6-well plates, and the following day, cells were treated with compounds and allowed to incubate for 2-3 weeks before fixation with 50% ethanol/water solution containing 0.1% methylene blue overnight. Colonies were counted manually, or with OpenCFU colony counting software, Images were acquired on a ChemiDoc imaging instrument.

MDA-MB-468 cells = assay: Annexin-V apoptosis assay, MDA-MB-468 cells; format: cell-based, human; settings: 0.25 μM, alone
Description: FIGS. 72A-72C presents the characterization of combinations on TNBC cell viability and cell death. Quantitation of Annexin-V staining of MDA-MB-468 cells treated with either 10 μM evoxine, 10 μM citropten, 0.25 μM 11-Cl-BBQ, or corresponding combinations for 72 hours (A and B, respectively). Quantifications represent averages of three independent experiments. C) Colony forming assay of MDA-MB-468 AhR-expressing and AhR KO cells treated with 100 nM Evoxine, 500 nM Citropten, […] 11-Cl-BBQ, or combinations of each compound with 11-Cl-BBQ.
Annexin-V staining was performed 48 hours post-treatment by harvesting cells (floating and attached) with trypsin, followed by addition of serum-containing media, and two washes with ice-cold PBS. Cells were stained with Annexin-V-PerCP conjugates (eBioscience, Waltham, MA, USA) for 15 minutes on ice before washing out residual stain and resuspending in 300 μL of binding buffer. 10,000 events were collected per sample. Data was acquired with a CytoFLEX S flow cytometer (Beckman Coulter, Brea, CA), and analyzed using the CytExpert software (Beckman Coulter).

[1] = Dose studies in mice, serum concentration; format: in vivo, mouse
H460 cells [2] = assay: Senescence-associated beta-galactosidase staining, H460 cells; format: cell-based, human; settings: 2.5 μM for 120 h; AhR-dependent
Description: H460 cells were seeded at 2×10^5 cells/well in 6-well plate overnight and treated with indicated compounds for 5 days. Media and treatments were refreshed on the […]. Cells were stained for senescence-associated β-galactosidase (SA-βgal) using 5-dodecanoylaminofluorescein di-β-D-galactopyranoside (C12FDG). Briefly, media were aspirated and replaced with fresh media containing 0.1 μM bafilomycin A1 (Calbiochem) and incubated for 1 hour in cell culture incubator. C12FDG (Setare Biotech) was added with a final concentration of 33 μM and incubated for another hour. Fluorescent signal was recorded using CytoFlex S cytometer for 10,000 cells per sample.

lung cancer cells = assay: Viability of lung cancer cell lines (CellTiter Glo); format: cell-based, human; settings: 10 nM to 10 μM, 72 hours
Description: Cancer cells were seeded in 96-well plates at a density of 3,000 cells per well in their optimal culture medium supplemented with 1% FBS overnight, then compounds were added at indicated concentrations and incubated for 72 hours; otherwise, different treatment times will be specified. Cell viability was measured using the ATP-based CellTiter Glo assay (Promega-Madison, WI) following the manufacturer's protocol. Luminescent signals were recorded using the Tropix TR717 microplate luminometer. The viability of cultures following each treatment was normalized to vehicle treatment (0.1% DMSO (v/v)).

p53 = assay: Western blot of p53 protein levels in H460 cells; format: cell-based, human; settings: 5 μM; from 4 h, further at 6 and 9 h
Description: Whole cell lysate was prepared in RIPA lysis buffer with 1× Laemmli buffer, then denatured by heating at 100° C. for 5 minutes. Denatured proteins were separated in SDS-PAGE gel and transferred onto PVDF membrane. The PVDF membrane was incubated in TBST with 5% nonfat dry milk for one hour at room temperature prior to incubating with primary antibody of interest overnight at 4° C. with gentle rotation. Appropriate horse radish peroxidase conjugated secondary antibody was applied for one hour at room temperature. Signal was developed by applying SuperSignal West Pico chemiluminescence substrate and captured using the ChemiDoc imaging instrument. Primary antibodies used in this study: anti-AHR antibody (BML-SA210-Enzo Biochem, Farmingdale, NY), anti-p27^Kip1 antibody (610242-BD Biosciences), anti-p53 antibody (DO-1 sc-126-Santa Cruz Biotechnology, Dallas, TX), anti-p21 antibody (2947S-Cell Signaling Technology, Danvers, MA), and anti-GAPDH antibody (sc-36502, Santa Cruz).

H460 cells [3] = assay: Zebrafish tumor xenograft assay with pre-treated H460 cells; format: in vivo; settings: cells exposed to 1 μM or 5 μM for 72 hours, washed out; days 1 and 4 post-injection; AhR-expressing cells
Description: H460 AHR wildtype (CR-V2) and knockout (CR-AHR3) cells were treated with 11-Cl-BBQ (1 and 5 μM) or 0.1% DMSO as vehicle control for 72 hours in RPMI media supplemented with 1% FBS. Cells were trypsinized, dyed with cell viable dye CM-Di1 (Thermofisher), and micro-injected into zebrafish embryos. The growth cancer xenografts were monitored at one day and four days post injection. Zebrafish were housed at the Sinnhuber Aquatic Research Laboratory at Oregon State University (Corvallis, OR, USA), and experiments were conducted according to Institutional Animal Care and Use Committee protocols.

cancer cell line = assay: Cell viability of combinations of AhR ligand and synergizer (FIGS. 51, 52); format: cell-based; settings: alone (FIG. 51)
Description: FIG. 51 provides data from cancer cell line trials using 11-Cl-BBQ alone, Evoxine alone, Citropten alone, and combinations comprising 11-Cl-BBQ and Citropten and 11-Cl-BBQ and Evoxine. […] The decrease in cell viability was more than additive. Specifically, for Evoxine in combination with Analog 523, the reduction in cell viability was: 31% at 1 μM; 41% at 3 μM; and 42% at 10 μM. For Citropten in combination with Analog 523, the reduction in cell viability was: 16% at 1 μM; 34% at 3 μM; and 43% at 10

H460 cells [4] = assay: Cell cycle analysis, H460 cells; format: cell-based, human; settings: 2.5 μM, 24 hours
Description: Cells were harvested by applying trypsin-EDTA then washed twice with phosphate-buffered saline (PBS) solution, fixed with 70% ethanol for 15 minutes at room temperature and kept at −20° C. overnight. Fixed samples were washed twice with PBS and stained with Hoechst 33258 (Invitrogen, Carlsbad, CA) at the final concentration of 1 μg/ml in the 0.1% Triton X-100/PBS for 20 minutes at room temperature. DNA content was analyzed by flow cytometer for 10,000 cells per sample, singlets population was selected for further analysis and cell cycle was assigned by fitting the DNA content into Dean-Jett-Fox model using FlowJo software.

H460 cells [5] = assay: Annexin V staining, H460 cells; format: cell-based, human; settings: 1 and 10 μM, 72 hours
Description: […] Cells were stained with Annexin-V-PerCP conjugates (eBioscience, Waltham, MA, USA) for 15 minutes on ice before washing out residual stain and resuspending in 300 μL of binding buffer. 10,000 events were collected per sample. Data was acquired with a CytoFLEX S flow cytometer (Beckman Coulter, Brea, CA), and analyzed using the CytExpert software (Beckman Coulter).

H460 cells [6] = assay: Colony forming assay, H460 cells; format: cell-based, human; settings: 0.1-10 µM, 14 days
Description: H460 cells were seeded in 6-well plates at a density of 200 cell per well in complete growth media. 11-Cl-BBQ or DMSO were added the following day as indicated concentrations for two weeks in 1% FBS RMPI media, media and treatments were replenished twice a week. Cell colonies were fixed and stained with methylene blue in 50% ethanol solution overnight. Pictures of cell colonies were captured using the ChemiDoc imaging instrument, and quantified using OpenCFU software.

In the case of O=c1c2cccc3cccc(c32)c2nc3cc(Cl)ccc3n12 [Analog 11-Cl-BBQ], the HepG2 colony formation (HepG2 cells) is reported as “little effect on colony formation inhibition”, the “apoptotic response (Annexin-V staining)” value (MDA-MB-468 cells) is reported as 7.3% and the “concentration detected in mouse serum” value ([1]; 2 mg/Kg intravenous administration) is reported as “up to 1.6 μM”. The “concentration detected in mouse serum” value ([1]; 8 mg/Kg oral administration) was 3000 nM, the SA-β-gal expression (H460 cells [2]) was “significant increase in SA-β-gal expression” and the “growth of lung cancer cells” value (lung cancer cells) was “decreased the growth of lung cancer cells in a dose-dependent manner”. The p53 protein levels (p53) was “increased p53 protein levels”, the “growth of cancer cell xenografts” value (H460 cells [3]) was “significantly lower growth” and the “cell viability, monotreatments” value (cancer cell line) was “little effect”. For the same compound, the “cells in S-phase” value (H460 cells [4]; vehicle 35%) was 15%, the “cells in G1 phase” value (H460 cells [4]; vehicle 45%) was greater than 70% and the “Annexin V staining (cell death)” value (H460 cells [5]) was “negative for Annexin V staining”. The “colony formation of AhR-expressing H460 cells” value (H460 cells [6]) was “strongly inhibited colony formation”.
